From patent US10092575B2, “Substituted thiophene- and furan-fused azolopyrimidine-5-(6H)-one compounds” (DART NEUROSCIENCE (CAYMAN) LTD., priority 2012, dated 2018) come the findings set out here.

By EC50 is commonly meant the midpoint of the concentration-response curve.

In the first assay the target is human PDE1b enzyme (Homo sapiens (Human), UniProt Q01064). The experiment in a line: PDE1b inhibitory assay (IMAP TR-FRET).
Conditions: not given
Background: Time-resolved FRET reads energy transfer from a long-lived donor to a nearby acceptor.
In the case of `COc1ccc(Cn2c(=O)n3ncnc3c3cc(CN4CC(Oc5ccccc5F)C4)sc32)cc1` [Example 190, 8-((3-(2-Fluorophenoxy)azetidin-1-yl)methyl)-6-(4-methoxybenzyl)thieno[3,2-e][1,2,4]triazolo[1,5-c]pyrimidin-5(6H)-one], the concentration for a half-maximal effect (EC50) fell in the range of 1 to 10 µM.
The same measure, in the same setting: the result for `O=c1n(Cc2cccc(Cl)c2)c2sc3c(c2c2ncnn12)CCCC3` [Example 85, 6-(3-Chlorobenzyl)-8,9,10,11-tetrahydrobenzo[4,5]thieno[3,2-e][1,2,4]triazolo[1,5-c]pyrimidin-5(6H)-one] reads 0.1 to 1 µM; that for `COc1ccc(Cn2c(=O)n3ncnc3c3c4c(sc32)N(Cc2ccc(Cl)cc2)CCC4)cc1` [Example 152, 8-(4-Chlorobenzyl)-6-(4-methoxybenzyl)-8,9,10,11-tetrahydropyrido[3′,2′:4,5]thieno[3,2-e][1,2,4]triazolo[1,5-c]pyrimidin-5 (6H)-one], 0.1 to 1 µM; that for `O=c1n(Cc2ccc(OC(F)(F)F)cc2)c2sc3c(c2c2ncnn12)CCOC3` [Example 96, 6-(4-(Trifluoromethoxy)benzyl)-6,8,10,11-tetrahydro-5H-pyrano[4′,3′:4,5]thieno[3,2-e][1,2,4]triazolo[1,5-c]pyrimidin-5-one], 1 to 10 µM.

Still in this assay, the particulars now being: negative log of half-maximal molar inhibitory concentration; 200 nM FAM-cAMP; reported as ranges.
Consider `COc1ccc(Cn2c(=O)n3ncnc3c3cc(CN4CCN(S(C)(=O)=O)CC4)sc32)cc1` [Example 35, 6-(4-Methoxybenzyl)-8-((4-(methylsulfonyl)piperazin-1-yl)methyl)thieno[3,2-e][1,2,4]triazolo[1,5-c]pyrimidin-5(6H)-one], for which the “PDE1b (pEC50)” value is listed as above 7.
`CCN1CCN(Cc2cc3c(s2)n(Cc2ccc(OC)cc2)c(=O)n2ncnc32)CC1=O` [Example 34, 8-((4-Ethyl-3-oxopiperazin-1-yl)methyl)-6-(4-methoxybenzyl)thieno[3,2-e][1,2,4]triazolo[1,5-c]pyrimidin-5(6H)-one]: the “PDE1b (pEC50)” value is recorded as above 7.
Consider `COc1ccc(Cn2c(=O)n3ncnc3c3c(CN(C)CC4CCOCC4)csc32)cc1` [Example 199, 6-(4-Methoxybenzyl)-9-((methyl((tetrahydro-2H-pyran-4-yl)methyl)amino)methyl)thieno[3,2-e][1,2,4]triazolo[1,5-c]pyrimidin-5(6H)-one], for which the “PDE1b (pEC50)” value is listed as above 7.
As to `COc1ccc(Cn2c(=O)n3ncnc3c3cc(CN4CCCOCC4)sc32)c(F)c1F` [Example 194, 8-((1,4-Oxazepan-4-yl)methyl)-6-(2,3-difluoro-4-methoxybenzyl)thieno[3,2-e][1,2,4]triazolo[1,5-c]pyrimidin-5(6H)-one], the “PDE1b (pEC50)” value is on record as above 7.
Regarding `COc1ccc(Cn2c(=O)n3ncnc3c3c4c(sc32)CN(Cc2ccccn2)CCC4)cc1` [Example 146, 6-(4-Methoxybenzyl)-9-(pyridin-2-ylmethyl)-6,8,9,10,11,12-hexahydro-5H-[1,2,4]triazolo[1″,5″:1′,6′]pyrimido[5′,4′:4,5]thieno[2,3-c]azepin-5-one], the “PDE1b (pEC50)” value was above 7.
With `COc1c(F)cc(Cn2c(=O)n3ncnc3c3c4c(sc32)COCC4)cc1F` [Example 98, 6-(3,5-Difluoro-4-methoxybenzyl)-6,8,10,11-tetrahydro-5H-pyrano[4′,3′:4,5]thieno[3,2-e][1,2,4]triazolo[1,5-c]pyrimidin-5-one], the “PDE1b (pEC50)” value is recorded as below 5.
Same read-out and setting: the result for `COc1ccc(Cn2c(=O)n3ncnc3c3c4c(sc32)N(C(=O)C2CCOC2)CCC4)cc1` (stereo not drawn) [Example 175, 6-(4-Methoxybenzyl)-8-(tetrahydrofuran-3-carbonyl)-8,9,10,11-tetrahydropyrido[3′,2′:4,5]thieno[3,2-e][1,2,4]triazolo[1,5-c]pyrimidin-5(6H)-one] reads above 7; that for `COc1ccc(Cn2c(=O)n3ncnc3c3c4c(sc32)CN(CC2CCCOC2)CC4)c(F)c1` (stereo not drawn) [Example 142, 6-(2-Fluoro-4-methoxybenzyl)-9-((tetrahydro-2H-pyran-3-yl)methyl)-8,9,10,11-tetrahydropyrido[4′,3′:4,5]thieno[3,2-e][1,2,4]triazolo[1,5-c]pyrimidin-5(6H)-one], above 7.
